pIC50: −log10 of the molar value.

In this assay the target is CDK2/Cyclin E1 (Homo sapiens, UniProt P24941). The assay can be described thus: CDK2/Cyclin E1 Caliper LabChip EZ Reader mobility shift assay. Format: biochemical. Details: purchased Eurofins 14-475. The note with it: read-out: Caliper Assay (CDK2/CCNE1): IC50. The method, then: Inhibition of CDK2/Cyclin E1 activity in the presence of compounds of the present disclosure was evaluated using a Caliper LabChip® EZ Reader mobility shift assay. In the assay, CDK2/Cyclin E1 (Eurofins, 14-475) catalyzed the phosphorylation of a fluorescently tagged peptide 5-FAM-QSPKKG-CONH2 (PerkinElmer, FL Peptide 18) which induced a difference in capillary electrophoresis mobility. The peptide substrate and product were measured, and the conversion ratio was used to determine the inhibition (as % activity and IC50 values) of CDK2/Cyclin E1. Reactions contained 50 mM HEPES pH 7.5, 10 mM MgCl2, 1 mM EDTA, 2 mM DTT, 0.01% Brij35, 0.5 mg/mL BSA, 0.1% DMSO, 2.5 nM CDK2/Cyclin E1, 100 μM ATP, and 1.5 μM fluorescent peptide substrate.
Dose titrations of inhibitors in 100% DMSO were combined with 3.25 nM CDK2/Cyclin E1 and 130 μM of ATP in reaction buffer. The mixtures were incubated for 30 minutes before the addition of fluorescent peptide substrate to initiate the kinase reaction. The final conditions were 2.5 nM CDK2/Cyclin E1, 100 μM ATP, and 1.5 μM fluorescent peptide. The reactions were stopped after 100 minutes with the addition of EDTA (400 mM final EDTA concentration). The stopped reactions were analyzed on a Caliper LabChip® EZ Reader II. The conversion ratios were normalized to yield % activity, plotted against compound concentration, and fit to a four-parameter equation to determine the IC50 for each compound.

Consider `CNC(=O)[C@@H](NC(=O)[C@@H]1CN(C(=O)C2CCNC2)CC12CN(C(=O)[C@H]1CC1(C)C)C2)[C@@H](C)OCc1ccccc1` (stereo partly drawn) [I-70A, (8S)—N-((2S,3R)-3-(benzyloxy)-1-(methylamino)-1-oxobutan-2-yl)-2-((S)-2,2-dimethylcyclopropane-1-carbonyl)-6-(pyrrolidine-3-carbonyl)-2,6-diazaspiro[3.4]octane-8-carboxamide], for which the pIC50 is < 5.00.

In the case of `CNC(=O)[C@@H](NC(=O)[C@H]1CN(C(=O)C2CCNC2)CC12CN(C(=O)[C@H]1CC1(C)C)C2)[C@@H](C)OCc1ccccc1` (some centres unmarked) [I-70B], the pIC50 was < 5.00.

As for `CNC(=O)[C@@H](NC(=O)[C@@H]1CN(C(=O)c2cnn(Cc3ccccc3)c2)CC12CN(C(=O)C1(F)CC1)C2)[C@@H](C)OCc1ccccc1` [I-71A], the pIC50 was 6.00 to 7.00.

Consider `CNC(=O)[C@@H](NC(=O)[C@H]1CN(C(=O)c2cnn(Cc3ccccc3)c2)CC12CN(C(=O)C1(F)CC1)C2)[C@@H](C)OCc1ccccc1` [I-71B], for which the pIC50 was < 5.00.

In the case of `CNC(=O)[C@@H](NC(=O)[C@@H]1CN(C(=O)c2c[nH]c3ccccc23)CC12CN(C(=O)[C@H]1CC1(C)C)C2)[C@@H](C)OCc1ccccc1` [I-72A], the pIC50 is < 5.00.

As to `CNC(=O)[C@@H](NC(=O)[C@H]1CN(C(=O)c2c[nH]c3ccccc23)CC12CN(C(=O)[C@H]1CC1(C)C)C2)[C@@H](C)OCc1ccccc1` [I-72B], the pIC50 was < 5.00.

In the case of `CNC(=O)[C@@H](NC(=O)[C@@H]1CN(C(=O)c2cnn(Cc3ccccc3)c2)CC12CN(C(=O)C1(C#N)CC1)C2)[C@@H](C)OCc1ccccc1` [I-73A], the pIC50 was 5.00 to 6.00.

Take `CNC(=O)[C@@H](NC(=O)[C@H]1CN(C(=O)c2cnn(Cc3ccccc3)c2)CC12CN(C(=O)C1(C#N)CC1)C2)[C@@H](C)OCc1ccccc1` [I-73B]: the pIC50 is < 5.00.

Consider `CCC(CC)C(=O)N1CC2(CN(C(=O)c3cnn(Cc4ccccc4)c3)C[C@H]2C(=O)N[C@H](C(=O)NC)[C@@H](C)OCc2ccccc2)C1` [I-74A], for which the pIC50 is 5.00 to 6.00.

On to `CCC(CC)C(=O)N1CC2(CN(C(=O)c3cnn(Cc4ccccc4)c3)C[C@@H]2C(=O)N[C@H](C(=O)NC)[C@@H](C)OCc2ccccc2)C1` [I-74B], for which the pIC50 is < 5.00.

With `CC1(C)C[C@@H]1C(=O)N1CC2(CN(C(=O)c3cnn(Cc4ccccc4)c3)C[C@H]2C(=O)Nc2cccc(Cc3ccccc3)c2)C1` [I-75A], the pIC50 was 5.00 to 6.00.

Consider `CC1(C)C[C@@H]1C(=O)N1CC2(CN(C(=O)c3cnn(Cc4ccccc4)c3)C[C@@H]2C(=O)Nc2cccc(Cc3ccccc3)c2)C1` [I-75B], for which the pIC50 was 5.00 to 6.00.

For `CNC(=O)[C@@H](NC(=O)[C@@H]1CN(C(=O)c2cnn(Cc3ccccc3)c2)CC12CN(C(=O)C(C)(C)C#N)C2)[C@@H](C)OCc1ccccc1` [I-76A], the pIC50 is 5.00 to 6.00.

On to `CNC(=O)[C@@H](NC(=O)[C@H]1CN(C(=O)c2cnn(Cc3ccccc3)c2)CC12CN(C(=O)C(C)(C)C#N)C2)[C@@H](C)OCc1ccccc1` [I-76B], for which the pIC50 was < 5.00.

With `CNC(=O)[C@@H](NC(=O)[C@@H]1CN(Cc2cnc[nH]2)CC12CN(C(=O)[C@H]1CC1(C)C)C2)[C@@H](C)OCc1ccccc1` [I-77A, (S)-6-((1H-imidazol-5-yl)methyl)-N-((2S,3R)-3-(benzyloxy)-1-(methylamino)-1-oxobutan-2-yl)-2-((S)-2,2-dimethylcyclopropane-1-carbonyl)-2,6-diazaspiro[3.4]octane-8-carboxamide], the pIC50 was < 5.00.

For `CNC(=O)[C@@H](NC(=O)[C@H]1CN(Cc2cnc[nH]2)CC12CN(C(=O)[C@H]1CC1(C)C)C2)[C@@H](C)OCc1ccccc1` [I-77B], the pIC50 was < 5.00.

Consider `CNC(=O)[C@@H](NC(=O)[C@@H]1CN(Cc2cnco2)CC12CN(C(=O)[C@H]1CC1(C)C)C2)[C@@H](C)OCc1ccccc1` [I-78A, (S)—N-((2S,3R)-3-(benzyloxy)-1-(methylamino)-1-oxobutan-2-yl)-2-((S)-2,2-dimethylcyclopropane-1-carbonyl)-6-(oxazol-5-ylmethyl)-2,6-diazaspiro[3.4]octane-8-carboxamide], for which the pIC50 was < 5.00.

The record behind these values is patent publication US20240174680A1, “CDK2 INHIBITORS AND METHODS OF USING THE SAME” (Cedilla Therapeutics, Inc., priority 2021, published 2024).
